Source: US6734292B1, “Pseudoerythromycin derivatives” (The Kitasato Institute, priority 2002, dated 2004)
“And” between values parts separate entries of the source, which are not always exact repeats. Equal entries are not always repeated.

What was measured:
THP-1 cells = test: enhancing effect for differentiation-induction from human monocyte to macrophage (THP-1/Mφ system, MTT readout); format: cell-based; parameters: key: ++: enhanced 100% or more; +: enhanced 50-100%; ±: enhanced 25-50%; −: no activity; /: expressed cytoxicity; NT: not tested or under assessment; conditions: in comparison with enhancing action for differentiation-induction of EM 100 μM
Procedure: In order to confirm enhancing effect for differentiation-induction of the compounds of the present invention, the enhancing effect for differentiation-induction from human monocyte to macrophage was assayed. Method is performed as follows. THP-1 cells were collected from cultured liquid by centrifugation, adjusted the concentration to 2×10^5 cells/ml using medium (RPMI 1640) and distributed into the 48-well plate at 500 μl/well. PMA solution 10 μl and sample solution 5 μl were added in each well, stirred with mild shaking and incubated at 37° C. for 72-96 hours under 5% CO2. Further MTT 0.5 mg/ml solution was added at 300 μl/well, and incubated at 37° C. for 3 hours under 5% CO2. Supernatant solution was suctioned using the injection tube, added DMSO 500 μl using automatic continuous injector to dissolve formazan completely and transferred each 100 μl to the 96-well plate. The optical absorption was measured using the plate-reader.

[1] = system: influenza virus-induced pneumonia; test: suppressive effect against pneumonia caused by influenza viral infection (mice influenza pneumonia model); format: in vivo
Procedure: Next, the suppressive effect of the compound EM703 against pneumonia caused by influenza viral infection was examined.
Sample was dissolved in physiological saline containing 1% DMSO and amount corresponding to oral dosage of the small administration for long-term therapy was administered from day-1 to day-6 of the infection to mice influenza pneumonia model (0.3 mg and 0.03 mg/mice), once a day, intraperitoneally. Results were compared with control group which was given only solvent.
In this system, mice developed pneumonia and almost died about 20 days after infection. […] This indicates suppressive effect against pneumonia and result to cure pneumonia.

[2] = system: bleomycin-induced pulmonary fibrosis; test: suppressive effect against bleomycin-induced pulmonary fibrosis (hydroxyproline levels in tissue); format: in vivo, mice; conditions: for Hydroxyproline levels in tissue, Assay result / Hydroxyproline levels in tissue, Weight conversion: day-28, individual mice
[3] = BLM + EM703 group: BLM 100 mg/kg tail vein day-0, EM703 50 mg/kg/day orally for 17 days
[4] = EM703 group (no BLM), 50 mg/kg/day orally, 50 mg/kg/day
[5] = BLM group: BLM 100 mg/kg tail vein day-0 only

CC[C@H]1O[C@]2(O)O[C@H]([C@@H](C)C3O[C@@](C)(C[C@@H]3C)[C@H](O[C@@H]3OC(C)CC(NC)C3O)[C@@H](C)[C@H](O[C@H]3CC(C)(OC)[C@@H](O)C(C)O3)[C@H]2C)[C@]1(C)O (some centres unmarked) [EM703, de(3′-N-methyl)-8,9-anhydro-pseudoerythromycin A 6,9-hemiketal]
activities in THP-1/Mφ system, Treated conc. 0.3 μM (THP-1 cells): + (enhanced 50-100%)
activities in THP-1/Mφ system, Treated conc. 1 μM (THP-1 cells): + (enhanced 50-100%)
activities in THP-1/Mφ system, Treated conc. 3 μM (THP-1 cells): + (enhanced 50-100%)
activities in THP-1/Mφ system, Treated conc. 10 μM (THP-1 cells): + (enhanced 50-100%)
survival of mice ([1]; EM703 0.3 mg/mice intraperitoneally once a day, day-1 to day-6 of infection, control mice almost died about 20 days after infection, FIG. 2): 40%
body weight ([1]; administration of EM703 intraperitoneally, control showed significant decrease of body weight, FIG. 3): increase body weight from day-10
suppressive effect against influenza virus-induced pneumonia ([1]; mice influenza pneumonia model, 0.3 mg/mice): cured pneumonia
Hydroxyproline levels in tissue, Assay result [2, 3]: 583 µmol/L and 495 µmol/L and 437 µmol/L and 314 µmol/L
Hydroxyproline levels in tissue, Weight conversion [2, 3]: 5.2 µmol/g and 4.5 µmol/g and 4.4 µmol/g and 2.9 µmol/g
Hydroxyproline level, an index for lung injury, BLM+EM703 group versus BLM administered group ([2]; EM703 50 mg/kg/day orally, BLM 100 mg/kg): reduced
Hydroxyproline levels in tissue, Assay result [2, 4]: 552 µmol/L and 489 µmol/L and 591 µmol/L
Hydroxyproline levels in tissue, Weight conversion [2, 4]: 5.0 µmol/g and 4.6 µmol/g and 5.4 µmol/g

CC[C@H]1O[C@]2(O)O[C@H]([C@@H](C)C3O[C@@](C)(C[C@@H]3C)[C@H](O[C@@H]3OC(C)CC(N4CCCCC4)C3O)[C@@H](C)[C@H](O[C@H]3CC(C)(OC)[C@@H](O)C(C)O3)[C@H]2C)[C@]1(C)O (some centres unmarked) [EM734, de(3′-dimethylamino)-3′-piperidino-8,9-anhydro-pseudoerythromycin A 6,9-hemiketal]
activities in THP-1/Mφ system, Treated conc. 0.3 μM (THP-1 cells): −
activities in THP-1/Mφ system, Treated conc. 1 μM (THP-1 cells): ± (enhanced 25-50%)
activities in THP-1/Mφ system, Treated conc. 3 μM (THP-1 cells): + (enhanced 50-100%)
activities in THP-1/Mφ system, Treated conc. 10 μM (THP-1 cells): + (enhanced 50-100%)
melting point: 128 to 130 °C

CCCCCCNC1CC(C)O[C@@H](O[C@@H]2[C@@H](C)[C@H](O[C@H]3CC(C)(OC)[C@@H](O)C(C)O3)[C@@H](C)[C@@]3(O)O[C@H]([C@@H](C)C4O[C@@]2(C)C[C@@H]4C)[C@](C)(O)[C@@H](CC)O3)C1O (some centres unmarked) [EM738, bis-de(3′-N-methyl)-3′-N-hexyl-8,9-anhydro-pseudoerythromycin A 6,9-hemiketal]
activities in THP-1/Mφ system, Treated conc. 0.3 μM (THP-1 cells): −
activities in THP-1/Mφ system, Treated conc. 1 μM (THP-1 cells): ± (enhanced 25-50%)
activities in THP-1/Mφ system, Treated conc. 3 μM (THP-1 cells): + (enhanced 50-100%)
melting point: 115 to 118 °C

CCCCCCN(CCCCCC)C1CC(C)O[C@@H](O[C@@H]2[C@@H](C)[C@H](O[C@H]3CC(C)(OC)[C@@H](O)C(C)O3)[C@@H](C)[C@@]3(O)O[C@H]([C@@H](C)C4O[C@@]2(C)C[C@@H]4C)[C@](C)(O)[C@@H](CC)O3)C1O (some centres unmarked) [EM739, bis-de(3′-N-methyl)-3′,3′-N,N-dihexyl-8,9-anhydro-pseudoerythromycin A 6,9-hemiketal]
activities in THP-1/Mφ system, Treated conc. 0.3 μM (THP-1 cells): −
activities in THP-1/Mφ system, Treated conc. 1 μM (THP-1 cells): ± (enhanced 25-50%)
activities in THP-1/Mφ system, Treated conc. 3 μM (THP-1 cells): + (enhanced 50-100%)
activities in THP-1/Mφ system, Treated conc. 10 μM (THP-1 cells): + (enhanced 50-100%)
melting point: 158 to 160 °C

CC[C@H]1O[C@]2(O)O[C@H]([C@@H](C)C3O[C@@](C)(C[C@@H]3C)[C@H](O[C@@H]3OC(C)CC(N4CCCCCC4)C3O)[C@@H](C)[C@H](O[C@H]3CC(C)(OC)[C@@H](O)C(C)O3)[C@H]2C)[C@]1(C)O (some centres unmarked) [EM748, de(3′-dimethylamino)-3′-[hexahydro-1(1H)-azepinyl]-8,9-anhydro-pseudoerythromycin A 6,9-hemiketal]
activities in THP-1/Mφ system, Treated conc. 0.3 μM (THP-1 cells): −
activities in THP-1/Mφ system, Treated conc. 1 μM (THP-1 cells): ± (enhanced 25-50%)
activities in THP-1/Mφ system, Treated conc. 3 μM (THP-1 cells): ++ (enhanced 100% or more)
activities in THP-1/Mφ system, Treated conc. 10 μM (THP-1 cells): ++ (enhanced 100% or more)
melting point: 120 to 123 °C

CCC(O)C(C)(O)C1OC(=O)C(C)C(O)C(C)C(OC2OC(C)CC(NC)C2O)C2(C)CC(C)=C(O2)C1C (centres unmarked) [EM754, de(3-O-cladinosyl) -de(3′-N-methyl) -8,9-anhydrous-pseudoerythromycin A 6,9-hemiketal]
activities in THP-1/Mφ system, Treated conc. 1 μM (THP-1 cells): −
activities in THP-1/Mφ system, Treated conc. 3 μM (THP-1 cells): −
activities in THP-1/Mφ system, Treated conc. 30 μM (THP-1 cells): + (enhanced 50-100%)

CC[C@H]1OC(=O)[C@H](C)[C@@H](O[C@H]2C[C@@](C)(OC)[C@@H](O)[C@H](C)O2)[C@H](C)[C@@H](O[C@@H]2O[C@H](C)C[C@H](N(C)C)[C@H]2O)[C@](C)(O)C[C@@H](C)C(=NO)[C@H](C)[C@@H](O)[C@]1(C)O [EM oxim, reference compound]
activities in THP-1/Mφ system, Treated conc. 1 μM (THP-1 cells): −
activities in THP-1/Mφ system, Treated conc. 3 μM (THP-1 cells): ± (enhanced 25-50%)
activities in THP-1/Mφ system, Treated conc. 10 μM (THP-1 cells): ± (enhanced 25-50%)
activities in THP-1/Mφ system, Treated conc. 30 μM (THP-1 cells): ++ (enhanced 100% or more)

CC[C@H]1OC(=O)[C@H](C)[C@@H](O[C@H]2C[C@@](C)(OC)[C@@H](O)[C@H](C)O2)[C@H](C)[C@@H](O[C@@H]2O[C@H](C)C[C@H](N(C)C)[C@H]2O)[C@](C)(O)C[C@@H](C)C(=O)[C@H](C)[C@@H](O)[C@]1(C)O [EM, Erythromycin]
activities in THP-1/Mφ system, Treated conc. 1 μM (THP-1 cells): −
activities in THP-1/Mφ system, Treated conc. 3 μM (THP-1 cells): ± (enhanced 25-50%)
activities in THP-1/Mφ system, Treated conc. 10 μM (THP-1 cells): + (enhanced 50-100%)
activities in THP-1/Mφ system, Treated conc. 30 μM (THP-1 cells): + (enhanced 50-100%)

bleomycin [BLM, reference compound]
Hydroxyproline levels in tissue, Assay result [2, 5]: 785 µmol/L and 733 µmol/L
Hydroxyproline levels in tissue, Weight conversion [2, 5]: 7.1 µmol/g and 6.4 µmol/g
